Data on 6 compounds can be found in patent EP0578644B1, “ANTIBIOTIC A 40926 ESTER DERIVATIVES” (GRUPPO LEPETIT S.p.A., priority 1991, dated 1992).

For test [1], the system named is Streptococcus pyogenes C203. Description: mouse septicemia (in vivo test). The settings on record: CD-1 mice infected intraperitoneally; antibiotics administered subcutaneously immediately after infection; calculated on the 7th day from surviving animals (Spearman and Kaerber). Here is the method: In these in vivo tests control and treatment groups contained five CD-1 mice (Charles River) weighting 18-22 g. They were infected intraperitoneally with 0.5 ml of bacterial suspension prepared by diluting an overnight culture of Streptococcus pyogenes C203 with sterile peptonized saline. Inocula were adjusted so that untreated animals died of septicemia within 48 hours. Antibiotics were administered subcutaneously immediately after infection. On the 7th day, the ED50 in mg/kg was calculated by the method of Spearman and Kaerber (D.J. Finney, "Statistical Methods in Biological Assay", Griffin, page 524, 1952) from the percentages of surviving animals at each dose. The results of the in vivo testing of representative compounds of the invention are summmarized in Table II below: Table II

For test [2], the system named is coagulase-negative staphylococci. Put plainly: in vitro antibacterial activity (MIC, microbroth dilution). The format is cell-based. The note with it: compared with the parent compounds (X vs I and VIII vs VII). (In general: In broth dilution the organism is exposed to a series of concentrations in liquid medium.)

“Demannosyl A 40926 complex 6^B-(2-bromoethyl) ester [compound VIII]”: in test [1], the ED50 (as a rule, the midpoint of the dose-response relation) was 0.31 mg/kg. Also, the “in vitro activity against coagulase-negative staphylococci” value in test [2] is reported as “better in vitro activity”.
“antibiotic A 40926 complex 6^B-monoethyl ester [compound II]”: the ED50 in test [1] is 0.23 mg/kg.
As to “antibiotic A 40926 complex 6^B-(2-hydroxyethyl) ester [compound V]”, the ED50 in test [1] was 0.18 mg/kg.
As to “O^42-demannosyl A 40926 6^B-methyl ester [compound X]”, the ED50 in test [1] is listed as 0.31 mg/kg. Besides, in test [2], the “in vitro activity against coagulase-negative staphylococci” value is on record as “better in vitro activity”.
In the case of “antibiotic A 40926 complex 6^B-monomethyl ester [compound I]”, the ED50 in test [1] is recorded as 0.18 mg/kg.
For `CN[C@H]1C(=O)N[C@@H]2Cc3ccc(cc3)Oc3cc4cc(c3O)Oc3ccc(cc3Cl)[C@@H](O)[C@@H]3NC(=O)[C@H](NC(=O)[C@@H]4NC(=O)[C@@H](NC2=O)c2cc(cc(O)c2Cl)Oc2cc1ccc2O)c1ccc(O)c(c1)-c1c(O)cc(O)cc1[C@@H](C(=O)O)NC3=O` [A 40926 aglycone, reference compound], the ED50 in test [1] is recorded as 6.2 mg/kg.
